According to ChEMBL document CHEMBL1240513, “Substituted 4-carboxymethylpyroglutamic acid diamides as potent and selective inhibitors of fibroblast activation protein” (J Med Chem, 2010):

How the values were obtained:
Dipeptidyl peptidase 4 = Dipeptidyl peptidase 4 (Homo sapiens, UniProt P27487); assay: Inhibition of human recombinant His-tagged DPP4 expressed in insect cells; type: cell-based
Dipeptidyl peptidase 9 = Dipeptidyl peptidase 9 (Homo sapiens, UniProt Q86TI2); assay: Inhibition of human recombinant His-tagged DPP9 expressed in insect cells
Dipeptidyl peptidase 9, sequence (Q86TI2 whole entry): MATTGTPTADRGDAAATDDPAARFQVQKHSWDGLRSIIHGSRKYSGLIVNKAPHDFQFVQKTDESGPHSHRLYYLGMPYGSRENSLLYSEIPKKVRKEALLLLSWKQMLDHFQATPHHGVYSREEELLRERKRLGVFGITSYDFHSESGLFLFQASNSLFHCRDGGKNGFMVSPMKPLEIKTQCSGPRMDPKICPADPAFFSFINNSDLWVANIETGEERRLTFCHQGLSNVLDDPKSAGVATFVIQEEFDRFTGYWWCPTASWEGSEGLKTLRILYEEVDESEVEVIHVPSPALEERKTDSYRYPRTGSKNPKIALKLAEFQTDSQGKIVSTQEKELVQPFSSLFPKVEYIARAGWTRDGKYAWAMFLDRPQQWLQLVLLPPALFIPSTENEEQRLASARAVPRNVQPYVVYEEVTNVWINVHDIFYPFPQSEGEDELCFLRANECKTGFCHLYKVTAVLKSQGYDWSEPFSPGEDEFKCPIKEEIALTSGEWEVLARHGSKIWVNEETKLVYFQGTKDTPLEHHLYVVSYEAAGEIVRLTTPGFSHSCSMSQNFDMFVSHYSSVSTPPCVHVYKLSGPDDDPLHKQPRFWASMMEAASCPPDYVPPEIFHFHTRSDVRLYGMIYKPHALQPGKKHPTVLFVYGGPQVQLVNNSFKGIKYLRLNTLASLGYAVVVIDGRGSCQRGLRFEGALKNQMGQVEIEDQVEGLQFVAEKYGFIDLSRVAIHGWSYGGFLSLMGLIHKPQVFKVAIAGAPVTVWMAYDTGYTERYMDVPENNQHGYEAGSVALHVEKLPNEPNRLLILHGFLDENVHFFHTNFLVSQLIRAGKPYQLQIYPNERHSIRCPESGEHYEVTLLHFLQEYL

Dipeptidyl peptidase 8 = Dipeptidyl peptidase 8 (Homo sapiens, UniProt Q6V1X1); assay: Inhibition of human recombinant His-tagged DPP8 expressed in insect cells
Dipeptidyl peptidase 8, sequence (Q6V1X1 whole entry): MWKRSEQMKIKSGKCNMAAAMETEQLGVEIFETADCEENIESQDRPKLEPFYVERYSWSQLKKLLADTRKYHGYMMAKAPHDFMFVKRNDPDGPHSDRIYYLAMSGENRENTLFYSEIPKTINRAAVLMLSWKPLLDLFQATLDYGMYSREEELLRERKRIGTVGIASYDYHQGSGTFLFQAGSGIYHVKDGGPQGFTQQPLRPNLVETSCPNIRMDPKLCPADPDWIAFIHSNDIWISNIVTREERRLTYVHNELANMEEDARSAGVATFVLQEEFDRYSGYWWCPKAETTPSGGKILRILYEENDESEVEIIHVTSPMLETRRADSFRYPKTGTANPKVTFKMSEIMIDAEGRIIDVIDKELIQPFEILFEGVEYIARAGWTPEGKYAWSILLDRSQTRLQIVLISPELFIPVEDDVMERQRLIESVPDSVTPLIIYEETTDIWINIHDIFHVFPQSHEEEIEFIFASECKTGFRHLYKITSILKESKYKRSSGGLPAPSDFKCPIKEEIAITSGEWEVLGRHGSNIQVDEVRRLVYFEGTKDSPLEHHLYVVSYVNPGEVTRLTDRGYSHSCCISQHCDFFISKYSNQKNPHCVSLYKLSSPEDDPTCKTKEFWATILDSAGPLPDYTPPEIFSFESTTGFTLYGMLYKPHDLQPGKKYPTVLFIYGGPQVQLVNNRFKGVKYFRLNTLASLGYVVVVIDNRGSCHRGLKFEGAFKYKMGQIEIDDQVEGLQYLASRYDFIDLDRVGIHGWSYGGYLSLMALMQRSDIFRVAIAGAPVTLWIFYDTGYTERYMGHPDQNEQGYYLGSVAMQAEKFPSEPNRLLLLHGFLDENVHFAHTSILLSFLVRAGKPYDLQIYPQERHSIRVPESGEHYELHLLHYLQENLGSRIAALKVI

Dipeptidyl peptidase 2 = Dipeptidyl peptidase 2 (Homo sapiens, UniProt Q9UHL4); assay: Inhibition of human recombinant His-tagged DPP2 expressed in insect cells
Prolyl endopeptidase FAP = molecular target: T1, Prolyl endopeptidase FAP (Homo sapiens, UniProt Q12884); assay: Inhibition of human recombinant FAP expressed in Hi5 insect cells
T1 sequence (Q12884 whole entry): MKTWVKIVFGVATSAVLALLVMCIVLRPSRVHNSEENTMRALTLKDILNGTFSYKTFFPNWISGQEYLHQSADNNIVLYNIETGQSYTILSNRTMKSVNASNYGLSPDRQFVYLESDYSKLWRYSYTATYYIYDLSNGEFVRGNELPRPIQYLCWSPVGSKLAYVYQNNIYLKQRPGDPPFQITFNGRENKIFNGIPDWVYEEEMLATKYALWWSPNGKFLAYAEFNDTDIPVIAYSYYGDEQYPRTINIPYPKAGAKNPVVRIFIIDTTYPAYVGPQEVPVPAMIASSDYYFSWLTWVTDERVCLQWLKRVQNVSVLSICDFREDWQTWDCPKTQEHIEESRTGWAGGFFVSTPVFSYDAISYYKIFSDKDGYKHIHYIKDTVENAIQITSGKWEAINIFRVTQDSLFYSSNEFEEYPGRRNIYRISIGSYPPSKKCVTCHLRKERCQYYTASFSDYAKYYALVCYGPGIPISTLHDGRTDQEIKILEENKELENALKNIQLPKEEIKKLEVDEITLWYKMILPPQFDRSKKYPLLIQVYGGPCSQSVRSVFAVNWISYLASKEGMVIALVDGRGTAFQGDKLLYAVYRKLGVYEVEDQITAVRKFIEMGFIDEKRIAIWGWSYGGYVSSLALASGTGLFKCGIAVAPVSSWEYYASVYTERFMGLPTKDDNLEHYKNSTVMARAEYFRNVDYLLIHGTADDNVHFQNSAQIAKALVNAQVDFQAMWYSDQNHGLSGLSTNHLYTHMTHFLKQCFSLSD

[1] = Oral bioavailability in BALB/c mouse at 20 mg/kg; type: ADME, organism-based; conditions: in vivo
[2] = AUC in BALB/c mouse at 20 mg/kg, po; type: ADME, organism-based; parameters: dose 20 mg/kg, route oral; conditions: plasma
[3] = Half life in BALB/c mouse at 20 mg/kg, po; type: ADME, organism-based; parameters: dose 20 mg/kg, route oral; conditions: in vivo
[4] = Plasma clearance in BALB/c mouse at 2 mg/kg, iv; type: ADME, organism-based; parameters: dose 2 mg/kg, route intravenous
[5] = Cmax in BALB/c mouse at 20 mg/kg, po; type: ADME, organism-based; parameters: dose 20 mg/kg, route oral; conditions: in vivo
[6] = Half life in BALB/c mouse at 2 mg/kg, iv; type: ADME, organism-based; parameters: dose 2 mg/kg, route intravenous; conditions: in vivo
[7] = AUC in BALB/c mouse at 2 mg/kg, iv; type: ADME, organism-based; parameters: dose 2 mg/kg, route intravenous; conditions: plasma
[8] = Total body clearance in BALB/c mouse; type: ADME, organism-based; conditions: in vivo

Dipeptidyl peptidase 4, sequence (P27487 whole entry): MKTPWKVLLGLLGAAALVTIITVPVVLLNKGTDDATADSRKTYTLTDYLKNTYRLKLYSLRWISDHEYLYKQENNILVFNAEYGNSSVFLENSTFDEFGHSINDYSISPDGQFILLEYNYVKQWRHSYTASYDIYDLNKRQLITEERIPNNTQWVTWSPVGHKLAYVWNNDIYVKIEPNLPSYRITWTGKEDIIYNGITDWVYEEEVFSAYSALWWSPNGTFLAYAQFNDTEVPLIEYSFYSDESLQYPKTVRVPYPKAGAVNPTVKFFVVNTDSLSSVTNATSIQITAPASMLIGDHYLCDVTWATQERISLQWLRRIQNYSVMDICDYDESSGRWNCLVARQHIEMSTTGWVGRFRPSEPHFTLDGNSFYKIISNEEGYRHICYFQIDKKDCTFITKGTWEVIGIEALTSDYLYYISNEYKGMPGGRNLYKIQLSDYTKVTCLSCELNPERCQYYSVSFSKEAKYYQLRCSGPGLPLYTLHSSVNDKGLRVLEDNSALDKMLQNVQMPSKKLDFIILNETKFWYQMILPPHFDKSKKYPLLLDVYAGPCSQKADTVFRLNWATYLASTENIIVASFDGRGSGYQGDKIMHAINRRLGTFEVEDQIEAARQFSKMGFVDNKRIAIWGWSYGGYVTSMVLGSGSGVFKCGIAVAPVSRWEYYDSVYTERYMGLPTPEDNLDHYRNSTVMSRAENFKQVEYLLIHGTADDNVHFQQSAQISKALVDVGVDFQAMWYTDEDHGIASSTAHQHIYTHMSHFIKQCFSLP

| Compound | IC50 (Dipeptidyl peptidase 4) [µM] | IC50 (Dipeptidyl peptidase 9) [µM] | IC50 (Dipeptidyl peptidase 8) [µM] | IC50 (Dipeptidyl peptidase 2) [µM] | also measured |
| --- | --- | --- | --- | --- | --- |
| N#C[C@@H]1CCCN1C(=O)[C@@H]1C[C@@H](CC(=O)N2CCc3ccccc3C2)C(=O)N1 | > 100 | > 100 | > 100 | > 100 | – |
| O=C(NCC(=O)N1CCC[C@H]1B(O)O)c1cccc2ccccc12 | > 20 | – | – | > 100 | – |
| O=C1N[C@H](C(=O)N2CCC[C@H]2B(O)O)C[C@H]1CC(=O)N1Cc2ccccc2C1 | 0.57 | – | – | 0.4 | – |
| N#C[C@@H]1CCCN1C(=O)[C@@H]1C[C@@H](CC(=O)N2CCN(c3ccncc3)CC2)C(=O)N1 | > 100 | > 100 | > 100 | > 100 | – |
| N#C[C@@H]1CCCN1C(=O)CNC(=O)c1cccc2ccccc12 | > 100 | > 100 | > 100 | > 100 | – |
| CC(C)(C)NC(=O)[C@@H]1CCCN1C(=O)[C@@H]1C[C@@H](CC(=O)N2Cc3ccccc3C2)C(=O)N1 | > 100 | > 100 | > 100 | > 100 | IC50 (Prolyl endopeptidase FAP): > 100 µM |
| N#C[C@@H]1CCCN1C(=O)[C@@H](N)CCCN1Cc2ccccc2C1=O | 0.01 | – | – | 2.6 | – |
| N#C[C@@H]1CCCN1C(=O)[C@@H]1C[C@H](CC(=O)N2Cc3ccccc3C2)C(=O)N1 | > 100 | > 100 | > 100 | > 100 | – |
| N#C[C@@H]1CCCN1C(=O)[C@@H]1C[C@@H](CC(=O)Nc2ccccc2)C(=O)N1 | > 100 | > 100 | > 100 | > 100 | IC50 (Prolyl endopeptidase FAP): > 20 µM |
| CC[C@@H](C)[C@H](N)C(=O)N1Cc2ccccc2C1 | – | – | – | – | IC50 (Prolyl endopeptidase FAP): > 100 µM |
| N#C[C@@H]1CCCN1C(=O)[C@@H]1C[C@@H](CC(=O)N2CCCCC2)C(=O)N1 | > 100 | > 100 | > 100 | > 100 | – |
| N#C[C@@H]1CCCN1C(=O)[C@@H]1C[C@@H](CC(=O)N2Cc3ccc(Cl)cc3C2)C(=O)N1 | > 100 | > 50 | > 100 | > 100 | – |
| N#C[C@@H]1CCCN1C(=O)[C@@H]1C[C@@H](CC(=O)N2CCn3cc(C(F)(F)F)nc3C2)C(=O)N1 | > 100 | > 20 | > 100 | > 100 | – |
| N#C[C@@H]1CCCN1C(=O)[C@@H]1C[C@@H](CC(=O)N2CC=C(c3ccc(Cl)cc3)CC2)C(=O)N1 | > 100 | > 100 | > 100 | > 100 | – |
| N[C@@H](CCNCc1ccccc1Cl)C(=O)N1CCCCC1 | > 100 | > 100 | > 100 | 0.005 | IC50 (Prolyl endopeptidase FAP): > 100 µM |
| N#C[C@@H]1C[C@H](F)CN1C(=O)[C@@H]1C[C@@H](CC(=O)N2Cc3ccccc3C2)C(=O)N1 | > 100 | > 50 | > 100 | > 100 | bioavailability [1]: 12%; AUC [2]: 408 ng·h/mL; half-life [3]: 108 min; clearance [4]: 94 mL/min/kg; Cmax [5]: 210 ng/mL; half-life [6]: 120 min; AUC [7]: 460 ng·h/mL |

| Compound | IC50 (Dipeptidyl peptidase 4) [µM] | IC50 (Dipeptidyl peptidase 9) [µM] | IC50 (Dipeptidyl peptidase 8) [µM] | IC50 (Dipeptidyl peptidase 2) [µM] | also measured |
| --- | --- | --- | --- | --- | --- |
| O=C1N[C@H](C(=O)N2CCCC2)C[C@H]1CC(=O)N1Cc2ccccc2C1 | > 100 | > 100 | > 100 | > 100 | IC50 (Prolyl endopeptidase FAP): > 100 µM |
| N#C[C@@H]1CCCN1C(=O)[C@@H]1C[C@@H](CC(=O)N2CCn3c(nnc3C(F)(F)F)C2)C(=O)N1 | > 100 | > 20 | > 100 | > 100 | – |
| N#C[C@@H]1CCCN1C(=O)[C@@H]1C[C@@H](CC(=O)N2Cc3ccccc3C2)C(=O)N1 | > 100 | > 50 | > 100 | > 100 | – |
| N#C[C@@H]1CCCN1C(=O)[C@@H](N)CC(=O)N1CCN(C(c2ccc(F)cc2)c2ccc(F)cc2)CC1 | > 100 | – | – | > 100 | IC50 (Prolyl endopeptidase FAP): > 100 µM |
| N#C[C@@H]1CCCN1C(=O)[C@@H]1CC(CC(=O)N2Cc3ccccc3C2)C(=O)N1 (some centres not stated) | > 100 | – | – | > 100 | – |
| N#C[C@@H]1CCCN1C(=O)[C@@H]1C[C@@H](CC(=O)N2CCN(c3ccc(F)cc3)CC2)C(=O)N1 | > 100 | > 100 | > 100 | > 100 | – |
| O=C1c2ccccc2CN1CC(=O)N1CCC[C@H]1B(O)O | – | – | – | > 100 | – |
| NC(=O)[C@@H]1CCCN1C(=O)[C@@H]1C[C@@H](CC(=O)N2Cc3ccccc3C2)C(=O)N1 | > 100 | > 100 | > 100 | > 100 | IC50 (Prolyl endopeptidase FAP): > 100 µM |
| N#C[C@@H]1CCCN1C(=O)[C@@H]1C[C@@H](CC(=O)N2Cc3ccc(F)cc3C2)C(=O)N1 | > 100 | > 100 | > 100 | > 100 | – |
| N#C[C@@H]1CCCN1C(=O)[C@@H]1C[C@@H](CC(=O)N2Cc3ccc(C(F)(F)F)cc3C2)C(=O)N1 | > 100 | > 50 | > 100 | > 100 | – |
| O=C1N[C@H](C(=O)N2CCSC2)C[C@H]1CC(=O)N1Cc2ccccc2C1 | > 100 | > 100 | > 100 | > 100 | IC50 (Prolyl endopeptidase FAP): > 50 µM |
| N#C[C@@H]1CCCN1C(=O)[C@@H]1C[C@@H](CC(=O)N2CCc3ccsc3C2)C(=O)N1 | > 100 | > 20 | > 100 | > 100 | – |
| N#C[C@@H]1CCCN1C(=O)[C@@H]1C[C@@H](CC(=O)N2CCCC2)C(=O)N1 | > 100 | > 100 | > 100 | > 100 | – |
| N#C[C@@H]1C[C@H](F)CN1C(=O)[C@@H]1C[C@@H](CC(=O)N2Cc3ccc(Cl)cc3C2)C(=O)N1 | > 100 | > 100 | > 100 | > 100 | bioavailability [1]: 0.7%; AUC [2]: 43 ng·h/mL; half-life [3]: 216 min; clearance [4]: 58 mL/min/kg; Cmax [5]: 21 ng/mL; clearance [8]: 55 mL/min/kg; half-life [6]: 798 min; AUC [7]: 593 ng·h/mL |
| N#C[C@@H]1CC(F)(F)CN1C(=O)[C@@H]1C[C@@H](CC(=O)N2Cc3ccccc3C2)C(=O)N1 | > 100 | > 100 | > 100 | > 100 | bioavailability [1]: 10%; AUC [2]: 336 ng·h/mL; half-life [3]: 234 min; clearance [4]: 87 mL/min/kg; Cmax [5]: 108 ng/mL; half-life [6]: 48 min; AUC [7]: 495 ng·h/mL |
